Experimental findings from article PMC12977544, “Phenotypic high-throughput screening identifies modulators of gut microbial choline metabolism” (mBio, 2026) are described below.

Assay [1] deals with E. coli MS 200-1. Nature of the assay: Growth inhibition of E. coli cultures in choline- and glycerol-containing minimal media. It counts as cell-based, Escherichia coli MS 200-1. Particulars: for Effect on growth of E. coli MS 200-1 in glycerol medium: glycerol NCE minimal medium. The protocol: To validate the potential hits from the HTS, we tested the 178 compounds for inhibition of growth of E. coli MS 200-1 in glycerol minimal media at 30 µg/mL, following up with those without activity. […]. We then determined EC50 values for inhibition of TMA production from choline by bacterial cultures incubated with [trimethyl-d9]choline in phosphate-buffered saline. Of the 178 compounds tested in both growth and TMA inhibition assays, 20 inhibited TMA generation by E. coli MS 200-1 without growth-inhibitory effects in glycerol minimal medium.
NCE media was adapted based on the “no carbon E” media as previously described ([14]), and contains 29 mM potassium phosphate monobasic, 29 mM potassium phosphate dibasic, 17 mM ammonium sodium phosphate dibasic, 40 mM sodium fumarate dibasic, 0.1% (wt/vol) casamino acids, and either 20 mM choline chloride or 3 g/L glycerol. This mixture was supplemented with 1 mM magnesium sulfate, 1% ATCC vitamin supplement, and 1% ATCC trace mineral supplement.

For assay [2], the target named is T1, purified CutC (choline trimethylamine-lyase) (Oleidesulfovibrio alaskensis, UniProt Q30W70).
T1 construct: made in house
Nature of the assay: In vitro CutC activity assay coupled to YADH/NADH (absorbance 340 nm). As to conditions: 5 nM CutC, 200 µM choline, 20°C, anaerobic. It counts as biochemical, Desulfovibrio desulfuricans G20. The protocol: To investigate if our compounds were inhibiting CutC directly, we tested their activity toward the purified enzyme. The activity of CutC was determined using a coupled enzyme assay, where the acetaldehyde product from the cleavage of choline to TMA is reduced to ethanol by yeast alcohol dehydrogenase (YADH) using nicotinamide adenine dinucleotide (NADH) as a cofactor. The consumption of NADH results in a change in absorption at 340 nm, and this rate of change of absorption was used to calculate the initial rates of reaction of CutC in the presence of varying concentrations of inhibitors ([14], [65]).
CutC and CutD enzymes from Desulfovibrio desulfuricans G20 were purified, CutC was activated by incubation with CutD, and the amount of glycyl radical installation was quantified as previously described ([15]). The IC50 of compounds was determined in an in vitro CutC activity assay, where CutC activity is coupled to the NADH-dependent enzymatic reduction of acetaldehyde by YADH ([15]). Briefly, assays were conducted in an anaerobic chamber (MBraun) under N2 atmosphere at 20°C. In 50 mM potassium phosphate buffer (pH 8.0, 50 mM KCl), 40 µM of CutD and 150 µM of sodium dithionite were incubated for 20 min before the addition of 200 µM of SAM and 20 µM of CutC monomer. The mixture was incubated for 1 h to activate the glycyl radical enzyme, after which the activated CutC mixture was diluted […] in 50 mM potassium phosphate buffer (pH 8.0, 50 mM KCl). A master mix containing 200 µM NADH, 0.4 µM YADH (Sigma), and the diluted CutC mixture (5 nM final concentration in assay) was prepared and aliquoted into 96-well plates (180 µL per well). Ten microliters of inhibitor or DMSO vehicle was added, followed by 10 µL of aqueous choline chloride solution (final concentration 200 µM). Absorbance was measured at 340 nm immediately after addition of all assay components, with measurements taken every 20 s for 10 min. Initial rates were calculated from absorbance measurements and fitted to Michaelis–Menten equation using nonlinear regression in GraphPad Prism 10 (v. 10.4.0). Background activity was subtracted using no substrate controls, and initial rates for each inhibitor concentration were normalized to no inhibitor controls. IC50 values were obtained by plotting normalized activity values against the logarithm of inhibitor concentration and fitting to a nonlinear regression model in GraphPad Prism 10 (v. 10.4.0).

Assay [3] concerns Proteus mirabilis ATCC 29906. Nature of the assay: MIC in MEGA medium. The format is cell-based. As to conditions: Proteus mirabilis, ATCC29906; anaerobic, 37°C, 24 h, up to 200 µM; read-out: MIC in MEGA medium, P. mirabilis. The protocol:
(§1) For TMA inhibition assays, E. coli and P. mirabilis were grown in NCE medium supplemented with 20 mM choline chloride, A. hydrogenalis was grown in MEGA medium supplemented with 3 mM choline chloride, and C. sporogenes was grown in BHI medium supplemented with 20 mM of choline chloride to induce expression of the cut gene cluster. For MIC assays, all bacteria strains were grown in MEGA medium.

For assay [4], the system named is Bacteroides caccae ATCC 43185. Nature of the assay: MIC in MEGA medium. The format is cell-based. Particulars: Bacteroides caccae, ATCC43185; anaerobic, 37°C, 24 h, up to 200 µM; read-out: MIC in MEGA medium, B. caccae. The protocol: as §1
Assay [5] concerns Bacteroides ovatus ATCC 8483. Nature of the assay: MIC in MEGA medium. It counts as cell-based. As to conditions: Bacteroides ovatus, ATCC8483; anaerobic, 37°C, 24 h, up to 200 µM; read-out: MIC in MEGA medium, B. ovatus. The protocol: as §1
For assay [6], the system named is Collinsella aerofaciens ATCC 25986. Nature of the assay: MIC in MEGA medium. It counts as cell-based. As to conditions: Collinsella aerofaciens, ATCC25986; anaerobic, 37°C, 24 h, up to 200 µM. The protocol: as §1
For assay [7], the system named is Anaerococcus hydrogenalis DSM 7454. The assay can be described thus: MIC in MEGA medium. It counts as cell-based. Particulars: Anaerococcus hydrogenalis, DSM7454; anaerobic, 37°C, 24 h, up to 200 µM. The protocol: as §1
The subject of assay [8] is Clostridium sporogenes ATCC 15579. Nature of the assay: MIC in MEGA medium. Particulars: Clostridium sporogenes, ATCC15579; anaerobic, 37°C, 24 h, up to 200 µM. It counts as cell-based. The protocol:
as §1

Assay [9] deals with Bacteroides thetaiotaomicron VPI-5482. Nature of the assay: MIC in MEGA medium. The format is cell-based. Particulars: Bacteroides thetaiotaomicron, VPI5482; anaerobic, 37°C, 24 h, up to 200 µM; read-out: MIC in MEGA medium, B. thetaiotaomicron. The protocol: as §1
Assay [10] deals with Eubacterium rectale ATCC 33656. Nature of the assay: MIC in MEGA medium. The format is cell-based. As to conditions: Agathobacter rectalis, ATCC33656; anaerobic, 37°C, 24 h, up to 200 µM; read-out: MIC in MEGA medium, E. rectale. The protocol:
as §1

pIC50: −log10 of the molar value. Converted amounts (≈) assume the structure as drawn. A value given as a limit tells only on which side of the number the result lay.

T1 sequence (Q30W70 53-846): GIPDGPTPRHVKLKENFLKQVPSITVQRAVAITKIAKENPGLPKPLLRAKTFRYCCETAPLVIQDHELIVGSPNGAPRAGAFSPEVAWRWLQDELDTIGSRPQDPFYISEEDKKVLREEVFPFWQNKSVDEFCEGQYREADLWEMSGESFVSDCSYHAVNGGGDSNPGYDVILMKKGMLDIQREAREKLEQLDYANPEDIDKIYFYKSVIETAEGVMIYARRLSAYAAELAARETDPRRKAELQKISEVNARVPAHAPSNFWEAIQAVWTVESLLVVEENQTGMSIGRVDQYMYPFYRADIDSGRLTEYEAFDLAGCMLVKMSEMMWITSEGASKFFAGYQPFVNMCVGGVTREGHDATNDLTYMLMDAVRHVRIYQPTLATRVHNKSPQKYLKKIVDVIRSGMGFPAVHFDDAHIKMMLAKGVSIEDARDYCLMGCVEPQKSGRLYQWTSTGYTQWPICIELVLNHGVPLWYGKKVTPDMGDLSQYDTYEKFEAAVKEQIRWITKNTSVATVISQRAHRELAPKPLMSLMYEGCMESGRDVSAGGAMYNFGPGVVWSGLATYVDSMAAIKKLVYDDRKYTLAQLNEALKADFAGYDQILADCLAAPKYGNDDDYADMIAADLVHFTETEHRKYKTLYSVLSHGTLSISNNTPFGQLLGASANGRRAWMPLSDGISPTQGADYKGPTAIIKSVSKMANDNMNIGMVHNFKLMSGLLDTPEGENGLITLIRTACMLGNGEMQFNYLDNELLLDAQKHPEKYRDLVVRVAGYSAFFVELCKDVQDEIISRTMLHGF

As for `Cc1ccc(-c2cc(C(=O)NCCCN3CCc4ccccc4C3)c(C)[nH]2)cc1C` [Compound 5], in assay [1], the “Effect on growth of E. coli MS 200-1 in glycerol medium” value was “no impact on growth”.
What is called pIC50 is the IC50 on a negative log10 scale, so that one unit is a factor of ten. A low value points to a high IC50. As usually defined, the MIC is the smallest concentration in the dilution series that meets the test's criterion for growth inhibition. In assay [2], `Cc1ccc(-c2cc(C(=O)NCCCN3CCC(C)CC3)c(C)[nH]2)cc1C` [Compound 6] had a negative logarithm of the IC50 (pIC50) of 4.32. For the same compound, the MIC in assay [3] is greater than 200 µM; in assay [4] it was greater than 200 µM; in assay [5], greater than 200 µM; in assay [6], greater than 200 µM; in [7], 200 µM (≈ 73.5 µg/mL); in assay [8], greater than 200 µM. For the same compound, the figures for the minimal inhibitory concentration (MIC) in assay [9] and in assay [10] were greater than 200 µM and 200 µM (≈ 73.5 µg/mL), respectively. Also, in assay [1] (choline minimal medium, 7 h, 6: 125–500 µM, 42: 30–100 µM), the “Inhibition of E. coli growth on choline” value was “dose-dependent”. Further, in [1], the “Effect on growth of E. coli MS 200-1 in glycerol medium” value was “not observed in glycerol”.
The compound `Cc1ccc(-c2cc(C(=O)NCCCCCN3CCCCCC3)c(C)[nH]2)cc1C` [Compound 45] had a pIC50 in [2] of 4.77. In addition, the MIC in assay [3], in [4], in assay [5], in assay [6], in assay [7] and in [8] was greater than 200 µM throughout. Besides, the MIC in assay [9] and in assay [10] was greater than 200 µM throughout.
